Measured values reported in publication PMC9201908, “Expansion of the Strigolactone Profluorescent Probes Repertory: The Right Probe for the Right Application” (Frontiers in Plant Science, 2022).
Several values for one entry are separate records, joined by “and”; a condition that tells them apart may be missing. Equal entries are not always repeated. Structures can show the parent of a compound that is named as a salt. Where two headings read alike, the source gives them in different places.

Assays:
[1] = system: rms1-10 pea mutant plants; test: Pea shoot-branching assay by direct application on the bud, rms1-10; assay type: in vivo, Pisum sativum; settings: for Length of bud at node 3 /branch: direct application, rms1-10, 10 days after treatment; for Bioactivity on shoot branching inhibition (bud development): result in words
Description: (§1) Pea (Pisum sativum) branching mutant plants used in this study were described previously (Rameau et al., [1997]). The SL biosynthesis rms1-10 (M3T-884) and SL response rms3-4 (M2T-30) mutants were obtained from the dwarf cv. Térèse. Plants were grown in a greenhouse under long days as described by Braun et al. ([2012]).
(§2) The compounds to be tested were applied directly to the axillary bud with a micropipette as 10 μL of a solution containing 0.1% of acetone with 2% of polyethylene glycol 1,450, 50% of ethanol, and 0.4% of DMSO. The control 0 is the treatment with 0.1% of DMSO without compound. A total of 24 plants were sown per treatment in trays (2 repetitions of 12 plants). The treatment was done 8 days after sowing, on the axillary bud at node 3. The branches at nodes 1–2 were removed to encourage the outgrowth of axillary buds at nodes above. Nodes were numbered acropetally from the first scale leaf as node 1 and cotyledonary node as node 0. Bud growth at node 3 was measured 10 days after treatment. Plants with damaged main shoot apex or showing a dead white treated bud were discarded from the analysis. The SL-deficient rms1-10 pea mutant was used for all experiments and WT Térèse as control. SL-perceived rms3-4 pea mutant was used to test that when bioactive, the analog acts via RMS3, and it was also used to check the putative toxicity of probes.

[2] = system: rms1-10 pea mutant plants; test: Pea shoot-branching assay by vascular supply, rms1-10; assay type: in vivo, Pisum sativum; settings: rms1-10, 3,000 nM
Description: as §1
The compounds to be tested were applied by vascular supply (Muñoz et al., [2021]). The control was the treatment with 0.1% of DMSO in water. A total of 12 plants were sown per treatment in trays and were treated with probes under node 3 bud generally 10 days after sowing. Compounds in DMSO solution were diluted with water to 3,000 nM for a treatment with 0.1% (v/v) DMSO. The branches at nodes 1 and 2 were removed to encourage the outgrowth of axillary buds at the nodes above. Nodes were numbered acropetally from the first scale leaf as node 1 and cotyledonary node as node 0. Bud growth at nodes 3 and 4 was measured with digital calipers 8–10 days after treatment. Plants with damaged main shoot apex or with a dead white treated-bud were discarded from the analysis. The SL-deficient rms1-10 pea mutant was used for all experiments.

[3] = system: Arabidopsis SL-deficient mutant max3-11; test: Hydroponic assay on Arabidopsis, rosette branches; assay type: in vivo, Arabidopsis thaliana; settings: max3-11, hydroponic, 0.5 and 3 μM
Description: The hydroponic assay was adapted from the study by Cornet et al. ([2021]). Seeds were surface-sterilized for 8 min in a solution of ethanol (95%) and hypochlorite solution (10%; Bayrol, Mundolsheim, France) and were rinsed two times with ethanol (100%). Each seed was sown on top of a cut 0.5 ml Eppendorf tube filled with agar medium containing 0.65% of agar and 10% of nutritive solution of 5 mM NO3. Tubes were soaked in water and stored in the dark at 4°C for 2 days. Twelve plants per pipette tip box (13 × 9 × 7 cm) were grown and supplied with nutrient solution as in the study by Boyer et al. ([2014]) at a concentration of 5 ml/L (750 ml of solution per box). Every week, the nutrient solution was renewed and every 10 days one time, a fresh batch of treatment was added to the solution. The first treatment occurred at day 27 after sowing when plants started to bolt. The number of rosette branches was counted at day 42.

[4] = system: Ppccd8 mutant plants; test: Physcomitrium patens bioassay, number of filaments in the dark; assay type: in vivo; settings: 1 μM; for Activity on filament number, one bioassay replication: Supplementary Figure 3
Description: Assays on Physcomitrium patens were performed on plants grown in 24-well plates, starting from very small pieces of moss tissues as described by Guillory and Bonhomme ([2021]). As for pea rms1, the Ppccd8 SL synthesis mutant was used for assays, since the effect of the compounds was better seen in this mutant vs. wild type (WT; Lopez-Obando et al., [2021]). For each treatment, 24 plants were grown in PpNO3 medium [minimal medium described by Ashton et al., [1979]], dispatched in three different plates. Plants were grown for 2 weeks under control conditions, then treated with fluorophores or probes (all compounds used at 1 μM), before being placed vertically in the dark for 10 days. A single picture of each well was taken under an Axio Zoom microscope (Zeiss) with a dedicated program. Filaments were counted using ImageJ software (http://imagej.nih.gov/ij/) as described by Guillory and Bonhomme ([2021]). Twenty-four plants were tested in each treatment.

[5] = system: pea; test: Bioactivity of D14 inhibitors in pea; settings: in vivo
[6] = system: Ppccd8 mutant plants; settings: WT and Ppccd8; ref Hoffmann et al., 2014; Lopez-Obando et al., 2021; cited from earlier work
[7] = system: ShD14; design: method as in Xu et al., 2018; settings: ref Xu et al., 2018; cited from earlier work
[8] = molecular target: T1, RMS3 protein (Pisum sativum, UniProt A0A109QYD3); test: Enzymatic assay with profluorescent probes, RMS3; assay type: biochemical; settings: probe 10 μM, RMS3 400 nM, 25°C, result in words
T1 construct: GST; made in house
T1 sequence (A0A109QYD3 1-267): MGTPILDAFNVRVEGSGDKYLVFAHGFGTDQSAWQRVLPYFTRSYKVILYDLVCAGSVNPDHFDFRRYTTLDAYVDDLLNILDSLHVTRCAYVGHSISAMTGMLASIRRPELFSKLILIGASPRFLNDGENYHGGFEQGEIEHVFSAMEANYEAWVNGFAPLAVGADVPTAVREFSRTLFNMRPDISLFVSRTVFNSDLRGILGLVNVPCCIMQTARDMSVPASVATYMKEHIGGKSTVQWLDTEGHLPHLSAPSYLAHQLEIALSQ

[9] = system: rms1-10 pea mutant plants; settings: cited from earlier work; for Length of bud at node 3 /branch: direct application, rms1-10, tested previously, ref De saint Germain et al 2016
[10] = system: rms3-4 pea mutant plants; test: Pea shoot-branching assay by direct application on the bud, rms3-4; assay type: in vivo, Pisum sativum; settings: 1,000 nM, rms3-4, 10 days after treatment
Description: as §1, §2

[11] = molecular target: T1, RMS3 protein; test: DSF binding assay on RMS3; settings: 10 µM RMS3, probe 0-400 µM
Description: To search for a destabilization effect, which characterizes bioactive SL analogs with SL receptors, we performed DSF binding assay with our novel probes on RMS3 protein.
DSF assay with SL profluorescent probes. The melting temperature

CC1=CC(Oc2ccc3nc4ccc(=O)cc-4oc3c2)OC1=O (racemic) [(±)-GC93, 7-[(4-Methyl-5-Oxo-2,5-Dihydrofuran-2-yl)Oxy]-3H-Phenoxazin-3-One]
Length of bud at node 3 /branch ([1]; 10 nM, mean per replicate): 17.73 mm
Length of bud at node 3 /branch ([1]; 10,000 nM, mean per replicate): 3.89 mm
Bioactivity on shoot branching inhibition (bud development) ([1]; rms1-10, direct application): inhibitory effect with statistical significance only at 10 μM
Bioactivity by vascular supply compared to the coumarin derivatives series [2]: lower bioactivity
Bioactivity on number of rosette branches [3]: not bioactive
Activity on filament number [4]: strongest activity

Cc1c(Cl)cccc1Nc1ccccc1C(=O)O [TFA, tolfenamic acid]
Bioactivity in pea [5]: no bioactivity

O=c1ccc2nc3ccc(O)cc3oc-2c1 [Resorufin, reference compound]
Length of bud at node 3 /branch ([1]; 10 nM, mean per replicate): 12.53 mm
Length of bud at node 3 /branch ([1]; 100 nM, mean per replicate): 16.50 mm
Length of bud at node 3 /branch ([1]; 1,000 nM, mean per replicate): 14.90 mm

CC1=C[C@H](O/C=C2/C(=O)O[C@@H]3c4ccccc4C[C@H]23)OC1=O (racemic) [(±)-GR24, reference compound]
Bioactivity on number of rosette branches [3]: bioactive at both concentrations
Activity on filament number [4]: confirmed the previous activity
Effect on filament number [6]: decrease in filament number
Cleavage by ShD14 [7]: could cleave

Cc1cc(=O)oc2c(F)c(O)c(F)cc12 [DiFMU, 6,8-difluoro-7-hydroxy-4-methyl-2H-chromen-2-one, reference compound]
Length of bud at node 3 /branch ([1]; 1,000 nM, mean per replicate): 14.76 mm

CC(=O)Oc1ccc2ccc(=O)oc2c1 [CoumarinAc, 7-Acetoxycoumarin]
Length of bud at node 3 /branch ([1]; 10 nM, mean per replicate): 21.81 mm
Length of bud at node 3 /branch ([1]; 100 nM, mean per replicate): 22.67 mm
Length of bud at node 3 /branch ([1]; 1,000 nM, mean per replicate): 25.33 mm
Bioactivity on shoot branching inhibition (bud development) ([1]; rms1-10, direct application): no effect
Cleavage kinetics by RMS3 [8]: slower velocity than DiFMUAc

Cc1cc(=O)oc2c(F)c(OC3C=CC(=O)O3)c(F)cc12 (racemic) [(±)-GC486]
Length of bud at node 3 /branch ([1]; 10 nM, mean per replicate): 24.70 mm
Length of bud at node 3 /branch ([1]; 100 nM, mean per replicate): 22.10 mm
Length of bud at node 3 /branch ([1]; 1,000 nM, mean per replicate): 23.14 mm
Bioactivity on shoot branching inhibition (bud development) ([1]; rms1-10, direct application): no biological activity
Activity on filament number, one bioassay replication [4]: slight opposite effect
Cleavage kinetics by RMS3 [8]: Michaelian kinetics
Length of bud at node 3 /branch ([9]; 1,000 nM): 9.26 mm
Length of bud at node 3 /branch ([9]; 5,000 nM): 17.41 mm

COc1cc2ccc(=O)oc2cc1OC1OC(=O)C(C)=C1C (racemic) [(±)-GC380]
Length of bud at node 3 /branch ([1]; 10 nM, mean per replicate): 6.65 mm
Length of bud at node 3 /branch ([1]; 100 nM, mean per replicate): 8.99 mm and 11.66 mm and 5.90 mm
Length of bud at node 3 /branch ([1]; 1,000 nM, mean per replicate): 2.33 mm and 3.47 mm and 2.08 mm
Length of bud at node 3 /branch ([1]; 10,000 nM, mean per replicate): 2.15 mm
Bioactivity on shoot branching inhibition (bud development) ([1]; rms1-10, direct application): bioactive for the three tested concentrations
Length of bud at node 3 /branch [10]: 23.62

7-Hydroxycoumarin [reference compound]
Length of bud at node 3 /branch ([1]; 1,000 nM, mean per replicate): 41.46 mm

O=C(N1CCc2ccccc21)n1ccnn1 [KK094]
Bioactivity in pea [5]: no bioactivity

CC1=C(C)C(Oc2ccc3nc4ccc(=O)cc-4oc3c2)OC1=O (racemic) [(±)-GC247, 7-[(3,4-Dimethyl-5-Oxo-2,5-Dihydrofuran-2-yl)Oxy]-3H-Phenoxazin-3-One]
Length of bud at node 3 /branch ([1]; 10 nM, mean per replicate): 12.39 mm
Length of bud at node 3 /branch ([1]; 10,000 nM, mean per replicate): 6.54 mm
Bioactivity on shoot branching inhibition (bud development) ([1]; rms1-10, direct application): inhibitory effect with statistical significance only at 10 μM
Cleavage kinetics by RMS3 [8]: two-phase kinetic

CC1=CC(OC=C2C(=O)OC3c4ccccc4CC23)OC1=O (single isomer, unassigned; (+)) [(+)-GR24]
Effect on filament number [6]: decrease in filament number

CC1=C(C)C(Oc2ccc3ccc(=O)oc3c2)OC1=O (racemic) [(±)-GC155]
Length of bud at node 3 /branch ([1]; 10 nM, mean per replicate): 5.97 mm and 16.85 mm and 8.43 mm
Length of bud at node 3 /branch ([1]; 100 nM, mean per replicate): 3.68 mm and 4.11 mm and 2.71 mm and 5.98 mm and 1.83 mm
Length of bud at node 3 /branch ([1]; 1,000 nM, mean per replicate): 1.98 mm and 1.45 mm and 1.92 mm and 1.96 mm and 2.38 mm and 2.32 mm
Length of bud at node 3 /branch ([1]; 10,000 nM, mean per replicate): 2.06 mm
Bioactivity on shoot branching inhibition (bud development) ([1]; rms1-10, direct application): among the most bioactive molecules
Cleavage kinetics by RMS3 [8]: two-phase kinetic
Destabilization of RMS3 (DSF) [11]: able to destabilize RMS3

CCOC(=O)c1ccccc1-c1c2ccc(=O)cc-2oc2cc(OC3C=CC(=O)O3)ccc12 (racemic) [(±)-dYLG, reference compound]
Biological activity on branching inhibition ([9]; ref Yao et al., 2021): no biological activity

CC1=CC(Oc2ccc3ccc(=O)oc3c2)OC1=O (racemic) [(±)-GC116]
Length of bud at node 3 /branch ([1]; 0.1 nM): 11.47 mm
Length of bud at node 3 /branch ([1]; 1 nM): 6.38 mm
Length of bud at node 3 /branch ([1]; 10 nM, mean per replicate): 2.47 mm and 2.26 mm and 5.20 mm and 4.34 mm and 3.85 mm
Length of bud at node 3 /branch ([1]; 100 nM, mean per replicate): 2.66 mm and 2.29 mm and 2.46 mm and 1.96 mm and 1.72 mm
Length of bud at node 3 /branch ([1]; 1,000 nM, mean per replicate): 1.67 mm and 3.13 mm and 1.60 mm and 2.22 mm and 1.97 mm and 2.21 mm
Length of bud at node 3 /branch ([1]; 10,000 nM, mean per replicate): 2.43 mm
Inhibition of bud development among probes with one methyl group on the D-ring ([1]; rms1-10, direct application, 10 nM): strongest inhibition of bud development
Bioactivity on shoot branching inhibition (bud development) ([1]; rms1-10, direct application): inhibition of bud development
Bioactivity on number of rosette branches [3]: bioactive at 3 μM
Activity on filament number, one bioassay replication [4]: no significant bioactivity
Destabilization of RMS3 (DSF) [11]: able to destabilize RMS3

COc1cc2ccc(=O)oc2cc1OC1C=C(C)C(=O)O1 (racemic) [(±)-GC379]
Length of bud at node 3 /branch ([1]; 10 nM, mean per replicate): 3.54 mm
Length of bud at node 3 /branch ([1]; 100 nM, mean per replicate): 2.81 mm and 5.02 mm and 3.98 mm and 14.32 mm
Length of bud at node 3 /branch ([1]; 1,000 nM, mean per replicate): 3.38 mm and 3.19 mm and 3.65 mm and 3.04 mm
Length of bud at node 3 /branch ([1]; 10,000 nM, mean per replicate): 2.17 mm
Bioactivity on shoot branching inhibition (bud development) ([1]; rms1-10, direct application): bioactive for the three tested concentrations
Length of bud at node 3 /branch [10]: 26.30
Destabilization of RMS3 (DSF) [11]: able to destabilize RMS3
